Here are results for 19 compounds from ChEMBL document CHEMBL1122602, “2-Acetylpyridine thiosemicarbazones. 8. Derivatives of 1-acetylisoquinoline as potential antimalarial agents” (1984).

What all share (type): functional
The subject of assay [1] is Mus musculus. Nature of the assay: Antimalarial activity was assessed against Plasmodium berghei in mice (Mus musculus) at 160 mg/kg dosage of the compound; Cure.
In assay [2] the test system is Mus musculus. The experiment in a line: Antimalarial activity was assessed against Plasmodium berghei in mice (Mus musculus) at 320 mg/kg dosage of the compound; Cure.
For assay [3], the system named is Mus musculus. The experiment in a line: Increase in mean survival time in mice inoculated with Plasmodium berghei days was reported following 40 mg/kg.
For assay [4], the system named is Mus musculus. The experiment in a line: Antimalarial activity was assessed against Plasmodium berghei in mice (Mus musculus). Increase in mean survival time in days was reported, at 80 mg/kg dosage of the compound.
The subject of assay [5] is Mus musculus. The experiment in a line: Antimalarial activity was assessed against Plasmodium berghei in mice (Mus musculus) at 640 mg/kg dosage of the compound; Cure.
In assay [6] the test system is Mus musculus. The experiment in a line: Antimalarial activity was assessed against Plasmodium berghei in mice (Mus musculus). Increase in mean survival time in days was reported at 640 mg/kg dosage of the compound.
For assay [7], the system named is Mus musculus. Nature of the assay: Antimalarial activity was assessed against Plasmodium berghei in mice (Mus musculus). Increase in mean survival time in days was reported at 160 mg/kg dosage of the compound.
Assay [8] has as its system Mus musculus. Nature of the assay: Antimalarial activity was assessed against Plasmodium berghei in mice (Mus musculus) at 80 mg/kg dosage of the compound; Cure.
Assay [9] concerns Mus musculus. Nature of the assay: Antimalarial activity was assessed against Plasmodium berghei in mice (Mus musculus). Increase in mean survival time in days was reported at 320 mg/kg dosage of the compound.
The subject of assay [10] is Mus musculus. Nature of the assay: Antimalarial mice (Mus musculus) at 320 mg/kg dosage of the compound; Cure.
The subject of assay [11] is Mus musculus. Nature of the assay: Antimalarial activity was assessed against Plasmodium berghei in mice (Mus musculus) at 40 mg/kg dosage of the compound; Cure.

For `C/C(=N\N=C(/S)N(C)C1CCCCC1)c1nccc2ccccc12`, the No. of cures with Mus musculus [1] and in the assay with Mus musculus [2] was 3 count throughout. Further, the “Increase in mean survival time” value in the assay on Mus musculus [3] turned out to be 9.5 days; in the assay with Mus musculus [4], 7.9 days.

For `C/C(=N\N=C(/S)N1CC(C)OC(C)C1)c1nccc2ccccc12` (stereo not given), the No. of cures in the assay on Mus musculus [1] came out at 3 count; in the assay on Mus musculus [2], 3 count; in the assay on Mus musculus [5], 1. The “Increase in mean survival time” value in the assay with Mus musculus [3] was 3.5 days; in the assay on Mus musculus [4], 8.6 days.

On to `CC(N/N=C(\S)NCc1ccccc1)c1nccc2ccccc12` (stereo not given), for which the results for the Mean survival time in the assay on Mus musculus [6] and with Mus musculus [7] were 0.1 days and 0.9 days, respectively. In addition, in the assay with Mus musculus [3], the “Increase in mean survival time” value is 0.3 days.

With `C/C(=N\N=C(/S)N1CCC(c2ccccc2)CC1)c1nccc2ccccc12`, the figures for the No. of cures in the assay on Mus musculus [1], in the assay with Mus musculus [2] and in the assay with Mus musculus [5] were 1 count, 1 count and 4, respectively. Moreover, the “Increase in mean survival time” value in the assay on Mus musculus [3] came to 2.7 days; with Mus musculus [4], 5.7 days.

Turning to `CC(N/N=C(\S)N1CCC(c2ccccc2)CC1)c1nccc2ccccc12` (stereo not given), the No. of cures in the assay on Mus musculus [1] was determined as 2 count; in the assay on Mus musculus [2], 1 count; in the assay on Mus musculus [5] it was 4. In addition, the “Increase in mean survival time” value in the assay with Mus musculus [3] stood at 1.6 days; in the assay on Mus musculus [4] it was 1 days.

As to `C/C(=N\N=C(/S)N1CCCCCC1)c1nccc2ccccc12`, the No. of cures with Mus musculus [1] worked out at 1 count; with Mus musculus [2], 2 count; in the assay on Mus musculus [5], 1. For the same compound, the entries for the “Increase in mean survival time” value with Mus musculus [3] and in the assay with Mus musculus [4] were 7.8 days and 6.9 days, respectively.

`C/C(=N\N=C(/S)N(C)C)c1nccc2ccccc12` displayed a No. of cures in the assay with Mus musculus [8] of 1. The compound further came in with a Mean survival time with Mus musculus [7] of 9.2 days. Also, the “Increase in mean survival time” value with Mus musculus [3] was determined as 7.3 days.

Turning to `CC(N/N=C(\S)N1CCN(c2ccccn2)CC1)c1nccc2ccccc12` (stereo not given), the No. of cures with Mus musculus [5] was found to be 3. Besides, the Mean survival time was determined as 7.7 days with Mus musculus [9] and 6.6 days in the assay on Mus musculus [7]. In addition, the “Increase in mean survival time” value is 1.6 days with Mus musculus [3] and 2.7 days in the assay with Mus musculus [4].

In turn, `CC(N/N=C(\S)N(C)C)c1nccc2ccccc12` (stereo not given) returned a No. of cures in the assay on Mus musculus [1] of 2 count. For the same compound, the “Increase in mean survival time” value with Mus musculus [3] was 6.2 days.

For the compound `CC1CCN(/C(S)=N/NC(C)c2nccc3ccccc23)CC1` (stereo not given), the No. of cures in the assay on Mus musculus [1] amounted to 3 count. Also, the “Increase in mean survival time” value in the assay with Mus musculus [3] is 7.6 days; in the assay on Mus musculus [4] it was 8.9 days.

In the case of `CC(N/N=C(\S)N1CCCCCC1)c1nccc2ccccc12` (stereo not given), the No. of cures in the assay with Mus musculus [1] came to 3 count; with Mus musculus [5], 2; in the assay on Mus musculus [10], 2 count. Besides, the figures for the “Increase in mean survival time” value with Mus musculus [3] and in the assay on Mus musculus [4] were 5.1 days and 7.1 days, respectively.

On to `CC(N/N=C(\S)N(C)C1CCCCC1)c1nccc2ccccc12` (stereo not given), for which the No. of cures in the assay with Mus musculus [1] was found to be 2 count; with Mus musculus [2], 1 count; in the assay with Mus musculus [11], 2 count; in the assay on Mus musculus [5], 1; with Mus musculus [8], 3 count.

Take `CC(N/N=C(\S)N1CCCC1)c1nccc2ccccc12` (stereo not given): the No. of cures was 3 count with Mus musculus [1], 3 count in the assay with Mus musculus [2] and 1 in the assay on Mus musculus [5]. For the same compound, the “Increase in mean survival time” value with Mus musculus [3] was 5.1 days; in the assay on Mus musculus [4], 7.1 days.

For the compound `C/C(=N\N=C(/S)N1CCC(C)CC1)c1nccc2ccccc12`, the No. of cures in the assay with Mus musculus [1] was 2 count; with Mus musculus [8] it was 1 count. For the same compound, the “Increase in mean survival time” value with Mus musculus [3] came to 1 days.

`C/C(=N\N=C(/S)N1CCCC1)c1nccc2ccccc12`: the No. of cures with Mus musculus [1] and in the assay on Mus musculus [2] was 2 count in each case. Also, the entries for the “Increase in mean survival time” value in the assay on Mus musculus [3] and in the assay with Mus musculus [4] were 3.5 days and 2 days, respectively.

Take `CC(N/N=C(\S)N1CC2CCC(CC2)C1)c1nccc2ccccc12` (stereo not given): the No. of cures in the assay with Mus musculus [1] turned out to be 5 count; in the assay on Mus musculus [2] it was 4 count; in the assay with Mus musculus [5], 3; with Mus musculus [8], 1 count. Moreover, in the assay with Mus musculus [3], the “Increase in mean survival time” value came out at 9.7 days.

Turning to `CC1CN(/C(S)=N/NC(C)c2nccc3ccccc23)CC(C)O1` (stereo not given), the No. of cures in the assay on Mus musculus [1] was determined as 2 count; in the assay on Mus musculus [2], 3 count; with Mus musculus [5] it was 2. The “Increase in mean survival time” value in the assay with Mus musculus [3] amounted to 5.9 days; in the assay with Mus musculus [4], 5.7 days.

For the compound `C/C(=N\N=C(/S)N1CC2CCC(CC2)C1)c1nccc2ccccc12`, the No. of cures in the assay on Mus musculus [1] amounted to 5 count; in the assay with Mus musculus [2] it was 5 count; with Mus musculus [11], 2 count; in the assay on Mus musculus [5], 5; in the assay with Mus musculus [8], 3 count.

As for `C/C(=N\N=C(/S)NCc1ccccc1)c1nccc2ccccc12`, the Mean survival time with Mus musculus [6] turned out to be 0.5 days; in the assay with Mus musculus [7], 0.9 days. Besides, in the assay on Mus musculus [3], the “Increase in mean survival time” value is 0.1 days.
